The values that follow come from US20230414654A1, “METHODS OF TREATING COPPER METABOLISM-ASSOCIATED DISEASES OR DISORDERS” (Alexion Pharmaceuticals, Inc., priority 2020, published 2023).

The subject of data set [1] is participants with WD. The conditions noted are these: for participants considered successfully treated (NCC/NCCcorrected primary endpoint): by Week 24; for participants considered successful (primary endpoint): last assessment of Extension Period. Here is the method:
This study was conducted in US and European sites. […] A total of 28 participants were enrolled and treated (10 in Cohort 1 [treatment experienced] and 18 in Cohort 2 [treatment naïve or minimally treated]). One participant was enrolled in Cohort 2 but not treated.
NCC levels within or above the normal reference range at enrollment were required. […] Dosing was individualized, guided by NCC levels (adjusted for molybdenum plasma concentration) and safety data. The primary efficacy endpoint was related to the proportion of successful participants, i.e., the proportion of participants who achieved plasma “free” copper control or improvement from baseline.
Due to small sample size and data variability, the median values for the weighted averages of the doses will be cited throughout.
The primary endpoint in study 201 was the change in NCC/NCCcorrected from baseline to Week 24.
In Study 201, 12-hour dense PK/PD samples for plasma total molybdenum and copper were collected on Day 1, Week 12, and Week 24. Plasma samples for assessing “free” copper were also collected at 0, 4, and 8 hours during those visits and assayed for LBC concentrations. For the purpose of comparison across Studies 106 and 201, FIG. 3 has super-imposed LBC/total copper ratios-time profiles within the 12-hour time window after dosing from both studies.

Data set [2] has as its system healthy participants.
Experimental: Twenty-four participants were enrolled (12 Japanese and 12 non-Japanese). […] Participants were followed 10 days after dosing within each Dosing Period, and a minimum of 14 days (+2 days) separated the dosing periods. PK and PD concentrations were measured over the next several hours for the first day and once daily for the next 9 days. Therefore, Study 106 permits examination of PK and PD profile changes within hours after drug administration.
Data set [3] can be described thus: Mobilization of copper from tissue (Studies 106, 201, 203). The settings on record: Study 106, Study 201 (BC-TTM); Study 203 (SoC).
For data set [4] the following is noted: cited from earlier work.
The conditions of data set [5]: in vivo; cited from earlier work.

Read-outs that look alike come from different tables or passages of the source. Marks after values point to notes of the source that are not given here.

With Bis-choline tetrathiomolybdate [BC-TTM], the “drop of LTC Ratio (LBC/total copper) from baseline” value in data set [1] (Day 1, 4 hours post dose, weighted average dose 30 mg) was roughly 30%. Moreover, in data set [1] (Week 24, 4 hours post-dose, weighted average dose 35.8 mg), the “nadir drop of LTC Ratio compared to Day 1 pre-dose baseline” value is reported as roughly 50%. The “reduction of mean serum non-ceruloplasmin-bound Cu (NCC)” value in data set [1] (Week 24 compared with baseline, 28 patients with WD, monotherapy) amounted to 72%. Moreover, the “reduction of pre-dose LTC Ratio compared to Day 1 pre-dose baseline” value in data set [1] (Week 24 pre-dose, weighted average dose 35.8 mg) is given as roughly 30%. Moreover, in data set [1] (Cohort 1 (treatment experienced)), the “participants considered successfully treated (NCC/NCCcorrected primary endpoint)” value is on record as 90.0%. The “participants considered successfully treated (NCC/NCCcorrected primary endpoint)” value in data set [1] (Cohort 2 (treatment naïve or minimally treated)) worked out at 83.3%. Further, in data set [1] (in vivo), the “paradoxical neurological worsening upon treatment initiation” value is listed as “No paradoxical neurological worsening was observed”, the “patients with reversible liver function test elevations” value came out at 39% and the tolerability result is given as “generally well-tolerated”. In data set [1] (Cohort 1), the “participants considered successful (primary endpoint)” value is reported as 90.0%. In data set [1] (Cohort 2), the “participants considered successful (primary endpoint)” value stood at 83.3%. In addition, in data set [1] (all participants), the “participants considered successful (primary endpoint)” value turned out to be 85.7%. In data set [2] (15 mg or 60 mg single dose), the “time of maximum plasma total copper concentration post dose” value was in the range of 8 to 12 h. Further, the “maximum median increase of plasma total copper from baseline” value in data set [2] (8-12 hours post dose) is 26-34%. The “median plasma LBC as % of pre-dose baseline concentration” value in data set [2] (12-24 hours post dose, combined ethnicity and dose data) is 80-90%. Moreover, in data set [2] (3 hours post dose, combined ethnicity and dose data), the “median plasma LBC nadir as % of pre-dose baseline concentration” value was 50-70%. The “percentage of plasma LBC relative to plasma total copper (AUEC)” value in data set [2] (after administration, all participants, both ethnicities and doses pooled) stood at 7%. In addition, in data set [2] (after dose), the “time at which median plasma LBC returned to baseline” value is 10 days. In addition, in data set [2] (after single 15 mg dose), the “maximum individual plasma LBC concentration” value turned out to be 2.79 µM and the “maximum individual plasma total copper concentration” value amounted to 23.0 µM. In data set [2] (after single 60 mg dose), the “maximum individual plasma LBC concentration” value turned out to be 2.93 µM and the “maximum individual plasma total copper concentration” value turned out to be 21.7 µM. Moreover, in data set [2] (human, in vivo), the “dose proportionality of plasma total molybdenum Cmax and AUC” value is “less than dose-proportionally”; the “time to maximum plasma molybdenum (Tmax)” value stood at 5 h. Further, in data set [2] (in vivo), the “delay of maximum plasma total copper after maximum plasma total molybdenum” value fell in the range of 3 to 7 h and the “plasma molybdenum anticipated to be in the form of TPCs” value is “approximately 96%”. The “time at which total copper concentrations had returned to predose baseline” value in data set [2] (post dose) worked out at 240 h. The “Mobilization of Copper from Tissue” value in data set [3] is listed as “Yes (Study 106;”. Further, the “Cu-Binding Selectivity” value in data set [4] is “Cu^+ and Cu^2+*”. Moreover, in data set [5], the “Route of Copper Elimination” value is on record as “Biliary/fecal”.
With `CC(C)(S)[C@@H](N)C(=O)O` [Penicillamine, (2S)-2-amino-3-methyl-3-sulfanylbutanoic acid], the “Mobilization of Copper from Tissue” value in data set [3] was “No (Study 203)”.
`NCCNCCNCCN` [Trientine, N-[2-(2-aminoethylamino)ethyl]ethane-1,2-diamine]: the “Mobilization of Copper from Tissue” value in data set [3] is on record as “No”. In addition, the “Cu-Binding Selectivity” value in data set [4] was “Cu^2+, and other”.
On to `[Zn]` [Zinc, zinc], for which, in data set [3], the “Mobilization of Copper from Tissue” value is recorded as “No (Study 203)”. Moreover, the “Route of Copper Elimination” value in data set [5] is reported as “Non-absorbed”.
